Reference: patent publication US4988730A, “Diphenkylpropylamines for the therapy of heart disease” (Chinoin Gyogyszer es Vegyeszeti Termekek Gyar RT, priority 1986, dated 1991)
Like-named read-outs stand apart in the source and are kept apart here.

How the values were obtained:
[1] = vasopressin angina of rats (acute coronary failure induced by vasopressin); assay type: in vivo; details: for ED50: Rattus norvegicus
From the text: Thus, such derivatives forming a more preferred group of the compounds of the formula (I), wherein R^1 is as defined above, R^2 means a methyl group, R^3 is halogen and R^4, R^5 and R^6 stand for hydrogen, show significant antianginal effects. In these derivatives, the halogen may be fluorine, chlorine or bromine. […] Thus, the above compound of the invention is about 42 times as effective as fendiline under the same conditions.
(§1) In the case of the vasopressin angina of rats [Papp and Szekeres: Arch. int. Pharmacodyn. 160, 147 (1966)], the antianginal activity measured at the 2nd minute following the intravenous administration or at the 60th minute after oral administration, respectively, as well as the intravenous and oral acute toxicity values, the therapeutic indices and the quotient of the therapeutic ratio of KHL-8430 to that of fendiline as measured in rats are summarized in Table 1.

[2] = vasopressin-induced angina, comparison of calcium antagonists (table 2); assay type: in vivo; details: for BP/Antianginal ED50 / ratio (row drawing 12; DP/dt max/antianginal by arithmetic): ratio, table 2
[3] = "two-step" coronary occlusion of Harris, extrasystolic activity in conscious dogs; assay type: in vivo; details: for extrasystolic activity following by 24 hours the two-step coronary occlusion: conscious dogs, KHL-8430 2 mg/kg intravenous
[4] = acute toxicity in rats (LD50, therapeutic indices); assay type: in vivo; details: for LD50 / selectivity ratio: rat, in vivo; for LD50: acute toxicity; for selectivity ratio: LD50 and ED50 in vasopressin angina
From the text: as §1

[5] = antiarrhythmic ("antifibrillatory") action, fibrillation threshold; assay type: in vivo; details: table 2
[6] = test system: auricular and ventricular muscle of the isolated cat heart; assay: antiarrhythmic action in auricular and ventricular muscle of the isolated cat heart
[7] = haemodynamic study on dogs during coronary occlusion; assay type: in vivo; details: in comparison with fendiline, verapamil or nifedipine
[8] = myocardial ischaemia induced by coronary occlusion in dogs; assay type: in vivo; details: versus fendiline
From the text: The myocardial ischaemia induced by coronary occlusion in dogs [Szekeres e al.: J. Pharm.

[9] = haemodynamic actions (blood pressure, heart rate, left ventricle contractility); assay type: in vivo; details: i.v.; KHL-8430, verapamil and fendiline
[10] = ventricular extrasystoles developing under the effect of a coronary occlusion; assay type: in vivo; details: as opposed to fendiline
[11] = anti-ischaemic protective action after an oral dose; assay type: in vivo
[12] = iv, 2 min, i.v. at 2 minutes before inducing the angina by i.v. 2 NE/kg of vasopressin, read-out: ED50, acute coronary failure induced by vasopressin
[13] = 1 h, vasopressin angina, 60th minute after oral administration, read-out: ED50, antianginal activity, oral
[14] = iv, 2 min, vasopressin angina, 2nd minute following i.v. administration, read-out: ED50, antianginal activity, intravenous
[15] = iv, rats, i.v., read-out: LD50, intravenous
[16] = iv, rats, i.v., read-out: therapeutic index, intravenous (head is drawing 4)
[17] = rats, oral, read-out: LD50, oral
[18] = rats, oral, read-out: therapeutic index, oral (head is drawing 5)

| Structure (SMILES) | ED50 [1, 12] [mg/kg] | BP/Antianginal ED50 [2] | ratio (row drawing 12; DP/dt max/antianginal by arithmetic) [2] | extrasystolic activity following by 24 hours the two-step coronary occlusion [3] | ED50 [1, 13] [mg/kg] | ED50 [1, 14] [mg/kg] | LD50 [4, 15] [mg/kg] | selectivity ratio [4, 16] | LD50 [4, 17] [mg/kg] | selectivity ratio [4, 18] | ratio (row drawing 11; BP/FFT by arithmetic) [5] | ratio (row drawing 13; DP/dt max/FFT by arithmetic) [5] | further results |
| --- | --- | --- | --- | --- | --- | --- | --- | --- | --- | --- | --- | --- | --- |
| CC(NCCC(c1ccccc1)c1ccccc1)c1ccc(Cl)cc1.Cl (centres unmarked) [2-(4-chlorophenyl)-6,6-diphenyl-3-azahexane hydrochloride] | 0.054 | – | – | – | – | – | – | – | – | – | – | – | times as effective as fendiline ([1]; vasopressin angina, i.v., same conditions): about 42 times |
| CC(NCCC(c1ccccc1)c1ccccc1)c1ccccc1 (stereo not drawn) [Fendiline, N-(3,3-diphenylpropyl)-α-methylbenzylamine, reference compound] | 2.3 | 0.62 | 0.41 | no significant effect | 20 | 2.3 | 12.2 | 5.3 | 800 | 40 | 0.26 | 0.175 | – |
| COc1ccc(C(C)NCCC(c2ccccc2)c2ccccc2)cc1OC.Cl (centres unmarked) [KHL-8430, 2-(3,4-Dimethoxyphenyl)-6,6-diphenyl-3-azahexane hydrochloride] | – | 3.75 | 10.00 | significantly lowered | 8.4 | 0.34 | 16 | 47.1 | 1400 | 167 | 1.25 | 3.33 | antiarrhythmic action, auricular and ventricular muscle of the isolated cat heart ([6]; compared with mexiletine): high antiarrhythmic action, which equals the effect of mexiletine; antiarrhythmic action relative to fendiline, verapamil and other calcium antagonists ([6]; isolated cat heart): by far surpassing that of fendiline, verapamil and other calcium antagonists; arterial blood pressure during coronary occlusion [7]: only a little lowered; heart rate during coronary occlusion [7]: not decreased; prolongation of the activation time in the ischaemic area [7]: significantly restrained; rhythm disturbances of the heart ([3]; dog, in vivo): in a great part of the cases, the rhythm disturbances of the heart could be suspended; frequency of the extrasystoles, oral administration ([3]; oral administration): diminished in a dose-dependent manner and very significantly; decrease of myocardial ischaemia induced by coronary occlusion ([8]; intravenous or oral): decreased more strongly and with a much longer duration; strength and duration of the effect on the ischaemic state induced by coronary occlusion [8]: highly exceed that of fendiline; strength and duration of the effect on the angina induced by vasopressin ([1]; versus fendiline): highly exceed that of fendiline; haemodynamical therapeutic index [9]: by far the best among the three calcium antagonists studied; Quotient of the therapeutic ratios, intravenous ([4]; rats, i.v., therapeutic ratio of KHL-8430 to that of fendiline): 8.89; Quotient of the therapeutic ratios, oral ([4]; rats, oral, therapeutic ratio of KHL-8430 to that of fendiline): 4.17; toxicity on intravenous and oral administrations ([4]; versus fendiline): less toxic than the reference compound; restraint of ventricular extrasystoles under coronary occlusion [10]: surprisingly capable to restrain the ventricular extrasystoles; anti-ischaemic protective action after an oral dose [11]: very smooth |
| COc1ccc(CCN(C)CCCC(C#N)(c2ccc(OC)c(OC)c2)C(C)C)cc1OC (centres unmarked) [verapamil] | – | 2.0 | 0.7 | no significant effect | – | – | – | – | – | – | 0.13 | 0.04 | ED50 ([2]; iv, read-out: ED50, Vasopressin-induced angina): 0.1 mg/kg |
